One data set has as its system prostate cancer. As to conditions: clinical trials; cited from earlier work.
Data set [1] can be described thus: Storage stability of Form CS8 under long-term and accelerated conditions (XRPD, HPLC). As to conditions: for Solid form after storage / Purity after storage / Chemical purity during storage: 6 months; for Purity after storage: initial purity 99.96%; for Time for which the form does not change / keeps stable on storage / Chemical purity during storage: drug substance. Format: physicochemical. As to the method:
The HPLC method parameters for purity test in the present disclosure are as follows: Approximately 30 mg of Form CS8 was stored under 25° C./60% RH and 40° C./75% RH in open or close dishes. Crystalline form and chemical impurity were checked by XRPD and HPLC, respectively. XRPD pattern overlay of Form CS8 of the present disclosure before and after being stored under 25° C./60% RH are depicted in FIG. 13. XRPD pattern overlay of Form CS8 of the present disclosure before and after being stored under 40° C./75% RH are depicted in FIG. 14.

Data set [2] can be described thus: Kinetic solubility of Form CS8, Form A and Form B in pH 1.0-6.8 media (HPLC). Type of data set: physicochemical. As to conditions: for Solubility relative to Form A of the prior art / Solubility relative to Form B of the prior art: 15 minutes. As to the method:
The HPLC method parameters for solubility test in the present disclosure are as follows:
1. Column: Waters XBridge C18 150×4.6 mm, 5 μm
2. Mobile Phase: A: 0.1% TFA in H2O • B: 0.1% TFA in Acetonitrile
4. Injection Volume: 5 μL
5. Detection wavelength: 242 nm
6. Column Temperature: 40° C.
Different parts of the human body have different acidity (pH 1.0-8.0). The pH in stomach is 1.0-2.0, and the pH in the small intestine is 4.0-7.0. The stomach and small intestine are the key organs for drug dissolution and absorption, so measuring the dynamic solubility of a drug in a medium with pH 1.0-7.0 plays an important role in predicting the in vivo bioavailability.
About 20 mg of Form CS8, Form A and Form B of the prior art were suspended into 2.0 mL of 0.1 mol/L HCl aqueous solution (pH=1.0), 2.0 mL of acetic acid buffer solution (PH=4.5) and 2.0 mL of phosphate buffer solution (pH=6.8) to make suspensions. After equilibrated for 15 minutes, 30 minutes, and 1 hour, concentrations (μg/mL) of the saturated solutions were measured by HPLC.

A short description of data set [3]: Adhesiveness: material sticking to the punch. Format: physicochemical. To be noted: 30 mg, φ8 mm round tooling, 10 KN, held 30 s. The protocol: Approximately 30 mg of Form CS8, Form A and Form B of the prior art were weighed and then added into the dies of φ8 mm round tooling, compressed at 10 KN and held for 30 s. The punch was weighed and amount of material sticking to the punch was calculated. The compression was repeated twice and the cumulative amount, maximum amount and average amount of material sticking to the punch during compression process were recorded.

Data set [4] can be described thus: Mechanical stability: manual grinding for 5 minutes (XRPD). Type of data set: physicochemical. To be noted: ground manually for 5 minutes in a mortar. As to the method: Form CS8, Form A and Form B of the prior art were ground manually for 5 minutes in a mortar, XRPD patterns were collected before and after gridding. The XRPD pattern overlay of Form CS8, Form A and Form B of the prior art are depicted in FIG. 17, FIG. 18 and FIG. 19.

A short description of data set [5]: Particle size distribution (laser particle size analyzer). Format: physicochemical. As to conditions: Isopar G containing 0.2% lecithin. The protocol: The particle size distribution data in the present disclosure were acquired by an […] laser particle size analyzer of Microtrac. Microtrac […] is equipped with an SDC (Sample Delivery Controller). The test is carried out in wet mode, and the dispersion medium is Isopar G. The laser particle size analyzer parameters are as follows: [table] Approximately 20 mg of Form CS8, Form A and Form B of the prior art were added into 10 mL of Isopar G (containing 0.2% lecithin). The mixture was mixed thoroughly and transferred into the SDC. The measurement was started when the sample amount indicator is in appropriate position. The average particle diameter calculated by volume, the diameter at which 10% mass is comprised of smaller particles (D10), the diameter at which 50% mass is comprised of smaller particles (D50) and the diameter at which 90% mass is comprised of smaller particles (D90) were obtained in particle size distribution test.

Data set [6] in a line: Storage stability of Form CS8 under stress condition (XRPD). Type of data set: physicochemical. To be noted: 60° C./75% RH. As to the method:
Approximately 30 mg of Form CS8 was stored under 60° C./75% RH in open or close dishes. Crystalline form change of Form CS8 was tested by XRPD.

Data set [7] is described as follows: Mechanical stability: tableting under different pressures (XRPD). Format: physicochemical. An excerpt: A certain amount of Form CS8 was compressed into pellets under different pressures with suitable tableting die. Crystalline form before and after tableting were checked by XRPD. The test results are shown in Table 14, XRPD pattern overlay is depicted in FIG. 16.

The nature of data set [8]: Compressibility: tensile strength of compacts. Type of data set: physicochemical. To be noted: 80 mg, φ6 mm round tooling, 10 KN. The protocol:
80 mg of Form CS8, Form A and Form B of the prior art were weighed and added into the dies of φ6 mm round tooling, compressed at 10 KN manually, then stored at room temperature for 24 h until complete elastic recovery. Hardness (H) was tested with an Intelligent Tablet Hardness Tester. Diameter (D) and thickness (L) were tested with a caliper. Tensile strength of the powder was calculated with the following formula: T=2H/πDL. Under a certain force, the greater the tensile strength, the better the compressibility.

For data set [9] the following is noted: low solubility and high permeability; cited from earlier work.
[10] abbreviates: pH=4.5 acetic acid buffer solution.
Where [11] appears, read: pH=6.8 phosphate buffer solution.

In the case of `CNC(=O)c1ccc(N2C(=S)N(c3ccc(C#N)c(C(F)(F)F)c3)C(=O)C2(C)C)cc1F` [Enzalutamide], the “Share of patients in whom the drug is effective” value with prostate cancer was “about 70%”.
In the case of `CNC(=O)c1ccc(N2C(=S)N(c3cnc(C#N)c(C(F)(F)F)c3)C(=O)C23CCC3)cc1F` [Form CS8, 4-[7-(6-cyano-5-trifluoromethylpyridin-3-yl)-8-oxo-6-thioxo-5,7-diazaspiro[3.4]oct-5-yl]-2-fluoro-N-methylbenzamide], the “Solid form after storage” value in data set [1] (25° C./60% RH (closed)) is “From CS8”; in data set [1] (25° C./60% RH (open)), “From CS8”; in [1] (40° C./75% RH (closed)), “From CS8”; in data set [1] (40° C./75% RH (open)), “From CS8”; in data set [6] (container open or close, 2 weeks), “Form CS8”. Also, the Purity after storage in data set [1] (25° C./60% RH (closed)) turned out to be 99.96%; in data set [1] (25° C./60% RH (open)), 99.96%; in data set [1] (40° C./75% RH (closed)), 99.95%; in data set [1] (40° C./75% RH (open)), 99.95%. For the same compound, the results for the “Time for which the form does not change / keeps stable on storage” value in data set [1] (25° C./60% RH), in data set [1] (40° C./75% RH) and in [6] were “at least 6 months”, “at least 6 months” and “at least 2 weeks”, respectively. In addition, the “Chemical purity during storage” value in [1] (25° C./60% RH) and in data set [1] (40° C./75% RH) was “above 99.9%” in each case. Besides, the “Solubility (concentration of saturated solution)” value came to 23.6 µg/mL in data set [2] (0.1 mol/L HCl aqueous solution pH=1.0, equilibrated 15 min); 25.1 µg/mL in [2] (0.1 mol/L HCl aqueous solution pH=1.0, equilibrated 30 min); 18.7 µg/mL in data set [2] (0.1 mol/L HCl aqueous solution pH=1.0, equilibrated 1 h); 17.7 µg/mL in [2] (acetic acid buffer solution pH=4.5, equilibrated 15 min); 10.6 µg/mL in data set [2] (acetic acid buffer solution pH=4.5, equilibrated 30 min); 10.9 µg/mL in data set [2] (acetic acid buffer solution pH=4.5, equilibrated 1 h). The “Solubility (concentration of saturated solution)” value was found to be 22.8 µg/mL in [2] (phosphate buffer solution pH=6.8, equilibrated 15 min); 18.9 µg/mL in data set [2] (phosphate buffer solution pH=6.8, equilibrated 30 min); 20.6 µg/mL in data set [2] (phosphate buffer solution pH=6.8, equilibrated 1 h). For the same compound, the “Solubility relative to Form A of the prior art” value in [2] (pH=1.0 HCl aqueous solution) turned out to be 3.2 times; in [2] (setting [10]) it was 3.0 times; in [2] (setting [11]) it was 3.7 times. Further, the figures for the “Solubility relative to Form B of the prior art” value in [2] (pH=1.0 HCl aqueous solution), in data set [2] (setting [10]) and in data set [2] (setting [11]) were 19.7 times, 16.1 times and 19.0 times, respectively. Further, in data set [3], the “Average amount of material sticking to the punch” value is 0.08 mg. In addition, the “Maximum amount of material sticking to the punch” value in data set [3] is given as 0.11 mg. Besides, in data set [4], the “Crystalline form/crystallinity after grinding” value is given as “doesn't change after grinding”. Further, the D10 in data set [5] came out at 48.60 μm. In addition, the D50 in [5] stood at 100.8 μm. Also, in data set [5], the D90 is 164.9 μm. Moreover, in data set [5], the “MV (average particle diameter calculated by volume)” value was 104.7 μm. Also, the “Crystalline form after tableting” value in [7] (pressure 3 kN), in data set [7] (pressure 7 kN) and in data set [7] (pressure 14 kN) was “Form CS8” throughout. Besides, in data set [8] (after 24 h at room temperature), the Diameter turned out to be 6.05 mm. Further, the Hardness in data set [8] (after 24 h at room temperature) worked out at 14.6 N. Besides, in [8] (after 24 h at room temperature), the Thickness is on record as 2.19 mm. Also, the Tensile strength in data set [8] (T=2H/πDL) is recorded as 0.70 MPa.
For the compound `CNC(=O)c1ccc(N2C(=S)N(c3cnc(C#N)c(C(F)(F)F)c3)C(=O)C23CCC3)cc1F` [ARN-509, 4-[7-(6-cyano-5-trifluoromethylpyridin-3-yl)-8-oxo-6-thioxo-5,7-diazaspiro[3.4]oct-5-yl]-2-fluoro-N-methylbenzamide], the BCS class entry in data set [9] is on record as “BCS II”.

The values above are taken from patent US11066384B2, “Crystalline forms of ARN-509, preparation method and use thereof” (Crystal Pharmaceutical (Suzhou) Co., Ltd., priority 2018, dated 2021).
